Assay results published in paper PMC9695642, “Conservation of Importin α Function in Apicomplexans: Ivermectin and GW5074 Target Plasmodium falciparum Importin α and Inhibit Parasite Growth in Culture” (International Journal of Molecular Sciences, 2022).
Read-outs that look alike come from different tables or passages of the source.

Assays:
[1] = tested on: P. falciparum 3D7 strain; experiment: P. falciparum growth inhibition, HRP2-based sandwich ELISA; assay type: cell-based, Plasmodium falciparum
From the text: To test the potential antimalarial action of GW5074, we compared the activity of GW5074 to ivermectin against the asexual stages of P. falciparum parasites, using an established HRP2-based (histidine-rich protein 2) ELISA [38, 39, 40]. The assay uses a sandwich ELISA to measure HRP2 levels as an indicator of parasite growth; the clinically prescribed drug dihydroartemisinin (DHA) was used as a positive control.
Figure 6 Ivermectin and GW5074 inhibit P. falciparum parasites in culture at low µM concentrations. P. falciparum cultures (0.25% parasitemia) were treated with increasing concentrations of the indicated compounds for 72 h, after which the HRP2-based sandwich ELISA was used to measure the HRP2 levels, determined by optical density. The results shown are from a single typical experiment performed in duplicate (SD shown), representative of a series of three independent experiments (see Table 5 for pooled data).
P. falciparum 3D7 strain was cultured and maintained in human red blood cells (RBCs) using RPMI (Roswell Park Memorial Institute) 1640 medium supplemented with 0.5% Albumax (GibcoTM, Waltham, MA, USA), 50 mg/L hypoxanthine (Sigma-Aldrich, St. Louis, MO, USA), 2 g/L D-glucose (Sigma-Aldrich, St. Louis, MO, USA), 2 g/L sodium bicarbonate (Sigma-Aldrich, St. Louis, MO, USA), and 56 mg/L of gentamicin (Abbott, Chicago, IL, USA) at 37 °C in 5% CO2 in a humidified incubator, according to the standard procedures. Cultures presynchronised using 5% D-sorbitol (Sigma-Aldrich, St. Louis, MO, USA) to obtain predominantly the ring stage of the P. falciparum life cycle were used for the growth assays, as previously. DHA (a gift from IPCA Laboratories, Mumbai, India) was used as a control. Growth assays in the absence and presence of inhibitors were performed using the HRP2 sandwich horseradish peroxidase-linked immunosorbent assay that measures HRP2 levels as an indicator of growth.

[2] = target: T1, PfIMPα (Plasmodium falciparum, UniProt Q8IAW0); experiment: AlphaScreen inhibition of PfIMPα binding to TGS1-NLS-GFP
From the text: (§1) Inhibitors of mammalian IMPα function are of key interest as anti-infectious agents. One of the first described is the small molecule macrocyclic lactone ivermectin, produced by the bacterium Streptomyces avermitilis, that is approved by the US Food and Drug Administration for parasitic infections. […] Chemically distinct from ivermectin, GW5074 (3-(3,5-dibromo-4-hydroxybenzyliden)-5-iodo-1,3-dihydroindol-2-one) binds to mammalian IMPα with analogous structural effects on IMPα and inhibitory effects on NLS recognition/IMPβ1 binding by IMPα [24]. […] We set out to test the activity of these inhibitors with respect to NLS binding by PfIMPα and TgIMPα, with NLS binding by MmIMPα analysed in parallel (Figure 3; Table 3). As expected, ivermectin and GW5074 inhibited MmΔIBBIMPα-SV40 T-ag with IC50 values of 5–6 µM, consistent with published data. […] The results clearly indicate that chemical inhibitors known to target mammalian IMPα can inhibit apicomplexan IMPα, underlining the structural and functional conservation of IMPα from apicomplexans to mammalian systems.
(§2) Figure 3 Ivermectin and GW5074 inhibit IMPα-NLS interaction at low micromolar concentration. AlphaScreen technology was used to determine the IC50 for inhibition by ivermectin and GW5074 binding of IMPαs (5 nM) to NLS (30 nM). Data represent the mean ± SEM for quadruplet wells from a single experiment, from a series of 3 independent experiments (see Table 3 for pooled data).
(§3) PfIMPα, TgIMPα, MmIMPα, ΔIBBMmIMPα, and MmIMPβ1 GST fusion proteins were expressed and purified essentially as previously. His-tagged T-ag-NLS-GFP, TGS1-NLS-GFP, GCN5-NLS-GFP, PfIMPα, and TgIMPα proteins were all purified using Ni^2+-affinity chromatography, as previously. Biotinylation of GST-tagged proteins was carried out using the Sulfo-NHS-Biotin reagent (Pierce, Rockford, IL, USA), as described previously. The AlphaScreen binding assay was performed as previously.

[3] = target: TgIMPα (Toxoplasma gondii, UniProt A0A125YID0); experiment: AlphaScreen inhibition of TgIMPα binding to T-ag-NLS-GFP
From the text: as §1, §2, §3

[4] = target: T2, MmΔIBBIMPα (Mus musculus, UniProt P52293); experiment: AlphaScreen inhibition of MmΔIBBIMPα binding to T-ag-NLS-GFP
T2 construct: GST; made in house
From the text: as §1, §2, §3

[5] = target: PfIMPα:MmIMPβ1 (Plasmodium falciparum, UniProt Q8IAW0); experiment: AlphaScreen inhibition of PfIMPα binding to MmIMPβ1
From the text: (§4) As indicated, both ivermectin and GW5074 have been previously shown to inhibit interaction between mammalian IMPα and IMPβ1 [24, 32]. We tested their activity towards apicomplexan IMPα (Figure 4; Table 4). As previously observed, binding of MmIMPα:MmIMPβ1 was inhibited strongly by both agents, with IC50 values of c. […] Clearly, ivermectin and GW5074 are able to act on apicomplexan IMPα in analogous fashion to MmIMPα in terms of the ability to bind to IMPβ1, the results further underlining the structural and functional conservation of IMPα from apicomplexans to mammalian systems.
(§5) Figure 4 Ivermectin and GW5074 inhibit IMPα–IMPβ interaction. AlphaScreen technology was used to determine the IC50 for inhibition by ivermectin and GW5074-binding of IMPβ (30 nM) to IMPαs (30 nM). Data represent the mean ± SEM for quadruplet wells from a single experiment, from a series of three independent experiments (see Table 4 for pooled data).
as §3

[6] = target: TgIMPα:MmIMPβ1 (Toxoplasma gondii, UniProt A0A125YID0); experiment: AlphaScreen inhibition of TgIMPα binding to MmIMPβ1
From the text: as §4, §5, §3

[7] = target: T3, MmIMPα:MmIMPβ1 (Mus musculus, UniProt P52293); experiment: AlphaScreen inhibition of MmIMPα binding to MmIMPβ1
T3 construct: His; made in house
From the text: as §4, §5, §3

[8] = target: T1, PfIMPα; experiment: Far-UV CD spectroscopy, α-helical content of PfIMPα with compound; assay type: binding; details: 80 µM compound, PfIMPα alone c. 63 % α-helical
Procedure: Previous analysis for MmIMPα using several biophysical approaches had established that the mechanism by which both ivermectin and GW5074 have an impact on NLS and IMPβ1 binding by MmIMPα is by direct binding to the ARM repeat domain of IMPα to perturb structural conformation. […] 63 % α-helical, compared to c. 70 % for MmIMPα (Figure 5b).
CD spectra were also analysed in the presence of increasing concentrations of ivermectin and GW5074, with both agents having a marked impact on the structure, especially at high concentrations (Figure 5a,b), consistent with the idea that both bind to the proteins directly to perturb structure. PfIMPα appeared to be particularly susceptible to both agents, with 30 µM GW5074 reducing α-helicity by more than a half (Figure 5a,b) to a residual value of 30%, which fell below 10% in the presence of 80 µM GW5074. […] 20% at 80 µM. The results, overall, indicate that both ivermectin and GW5074 can bind to and destabilise the structure of both PfIMPα and TgIMPα in analogous fashion to their known effects on mammalian IMPα, further underlining the conservation of structure and function between apicomplexan and mammalian IMPαs.
Figure 5 CD spectra for apicomplexan and mammalian IMPαs in the absence and presence of ivermectin and GW5074. CD spectra were collected for PfIMPα, TgIMPα, and MmIMPα in the absence or presence of 30 μM and 80 μM ivermectin and GW5074. (a) Spectra shown are from a single experiment, representative of two independent experiments for 30 μM concentration of ivermectin and GW5074. Note: θ is ellipticity. […]
CD spectroscopy was used to study the binding of ivermectin and GW5074 to PfIMPα, TgIMPα and MmIMPα, as previously described. CD spectra of the proteins at 0.1 mg/mL concentration were recorded from 200–260 nm using Jasco CD spectrometer (Jasco, Portland, OR, USA). CD spectra of the IMPαs were also measured in the presence of 30 µM and 80 µM concentrations of the ivermectin and GW5074 compounds. Percentage α-helix content was calculated from the ellipticity at 222 nm as described in [51]. […]

For `C[C@H]1[C@@H](O)O[C@@H]2O[C@@]3(C)CC[C@H]4[C@H](C)CC[C@@H]1[C@@]24OO3` [DHA, dihydroartemisinin], the IC50 ([1]; Plasmodium falciparum, 3D7, 72 h, 72 h, single typical experiment in duplicate, read-out: IC50, P. falciparum growth (Figure 6)) was 0.0007 µM, the IC50 ([1]; Plasmodium falciparum, 3D7, 72 h, asexual stages, 72 h, pooled mean ± SD (n = 3), read-out: IC50, inhibition of growth of P. falciparum parasites in culture) was 0.001 ± 0.0005 µM and the IC50 ([1]; Plasmodium falciparum, 3D7, asexual stages, approximate value, read-out: IC50, P. falciparum growth) was roughly 0.001 µM.

Molecule ivermectin has an IC50 ([2]; AlphaScreen, IMPα 5 nM, NLS 30 nM, pooled mean ± SEM (n = 3), read-out: IC50, inhibition of PfIMPα:TGS1 NLS binding) of 5 ± 1.3 µM, an IC50 ([2]; single experiment of a series of 3, read-out: IC50, PfIMPα:TGS1-NLS-GFP (Figure 3)) of 2.4 µM and an IC50 ([3]; AlphaScreen, IMPα 5 nM, NLS 30 nM, pooled mean ± SEM (n = 3), listed as ivermectin, read-out: IC50, inhibition of TgIMPα:SV40 T-ag NLS binding) of 5 µM. For the same molecule, the IC50 ([3]; AlphaScreen, IMPα 5 nM, NLS 30 nM, pooled mean ± SEM (n = 3), read-out: IC50, inhibition of TgIMPα:SV40 T-ag NLS binding) was 4.9 ± 0.2 µM, the IC50 ([3]; single experiment of a series of 3, read-out: IC50, TgIMPα:T-ag-NLS-GFP (Figure 3)) was 5.2 µM and the IC50 ([4]; AlphaScreen, IMPα 5 nM, NLS 30 nM, pooled mean ± SEM (n = 3), listed as ivermectin, read-out: IC50, inhibition of ΔIBBmIMPα:SV40 T-ag NLS binding) was 5 to 6 µM. For the same molecule, the IC50 ([4]; AlphaScreen, IMPα 5 nM, NLS 30 nM, pooled mean ± SEM (n = 3), read-out: IC50, inhibition of ΔIBBmIMPα:SV40 T-ag NLS binding) was 6.2 ± 0.2 µM, the IC50 ([4]; single experiment of a series of 3, read-out: IC50, MmΔIBBIMPα:T-ag-NLS-GFP (Figure 3)) was 6.3 µM and the IC50 ([5]; AlphaScreen, IMPβ 30 nM, IMPα 30 nM, pooled mean ± SEM (n = 3), listed as ivermectin, read-out: IC50, inhibition of PfIMPα:MmIMPβ1 binding) was 2 to 7 µM. The IC50 ([5]; AlphaScreen, IMPβ 30 nM, IMPα 30 nM, pooled mean ± SEM (n = 3), read-out: IC50, inhibition of PfIMPα:MmIMPβ1 binding) was 1.9 ± 0.2 µM, the IC50 ([5]; single experiment of a series of three, read-out: IC50, PfIMPα:MmIMPβ1 (Figure 4)) was 1.5 µM and the IC50 ([6]; AlphaScreen, IMPβ 30 nM, IMPα 30 nM, pooled mean ± SEM (n = 3), listed as ivermectin, read-out: IC50, inhibition of TgIMPα:MmIMPβ1 binding) was 2 to 7 µM. The IC50 ([6]; AlphaScreen, IMPβ 30 nM, IMPα 30 nM, pooled mean ± SEM (n = 3), read-out: IC50, inhibition of TgIMPα:MmIMPβ1 binding) was 6.9 ± 1.2 µM, the IC50 ([6]; single experiment of a series of three, read-out: IC50, TgIMPα:MmIMPβ1 (Figure 4)) was 5.4 µM and the IC50 ([7]; AlphaScreen, IMPβ 30 nM, IMPα 30 nM, pooled mean ± SEM (n = 3), listed as ivermectin, read-out: IC50, inhibition of MmIMPα:MmIMPβ1 binding) was roughly 3 µM. For the same molecule, the IC50 ([7]; AlphaScreen, IMPβ 30 nM, IMPα 30 nM, pooled mean ± SEM (n = 3), read-out: IC50, inhibition of MmIMPα:MmIMPβ1 binding) was 3.1 ± 0.5 µM, the IC50 ([7]; single experiment of a series of three, read-out: IC50, MmIMPα:MmIMPβ1 (Figure 4)) was 3.9 µM and the “residual α-helicity of PfIMPα” value [8] was roughly 20%. For the same molecule, the IC50 ([1]; 72 h, single typical experiment in duplicate, read-out: IC50, P. falciparum growth (Figure 6)) was 1 µM, the IC50 ([1]; asexual stages, 72 h, pooled mean ± SD (n = 3), listed as ivermectin, read-out: IC50, inhibition of growth of P. falciparum parasites in culture) was roughly 1 µM and the IC50 ([1]; asexual stages, 72 h, pooled mean ± SD (n = 3), read-out: IC50, inhibition of growth of P. falciparum parasites in culture) was 0.7 ± 0.1 µM.
